Calls of active or inactive are those of the source. The rule behind the calls is not given here.
What was measured:
PC-12 [1] = test: Neuritogenic activity in rat PC12 cells at 100 uM after 16 hrs; assay type: functional, cell-based
PC-12 [2] = test: Cytotoxicity against rat PC12 cells assessed as effect on LDH release after 24 hrs; assay type: cell-based; conditions: pc-12, 24 h
PC-12 [3] = test: Cytotoxicity against rat PC12 cells assessed as effect on LDH release at 100 uM after 24 hrs; assay type: cell-based; conditions: pc-12, 24 h
PC-12 [4] = test: Cytotoxicity against rat PC12 cells assessed as effect on LDH release at 33 uM after 24 hrs; assay type: cell-based; conditions: pc-12, 24 h

Row | Structure (SMILES) | Activity (PC-12 [1]) | Activity (PC-12 [2]) | Activity (PC-12 [3]) [%] | Activity (PC-12 [4]) [%]
1 | CC[C@@H](C)C[C@@H](C)/C=C(C)/C=C/C=C/C(O)=C1\C(=O)NC(Cc2ccc(O)cc2)C1=O (relative stereo) [MILITARINONE D] | Active | Non-toxic | – | –
2 | CC[C@@H](C)C[C@@H](C)/C=C(C)/C=C/C=C/C(=O)c1c(O)c(-c2ccc(O)cc2)c[nH]c1=O (relative stereo) [MILITARINONE B] | inactive | – | 74 | 30.7
3 | CC[C@@H](C)C[C@@H](C)/C=C(C)/C=C/C=C/C(O)=C1\C(=O)NC(C(O)c2ccc(O)cc2)C1=O (relative stereo) [MILITARINONE C] | Active | – | 16.8 | –

From ChEMBL document CHEMBL1150677, “Novel tetramic acids and pyridone alkaloids, militarinones B, C, and D, from the insect pathogenic fungus Paecilomyces militaris” (J Nat Prod, 2003)
